Broadly, the viability, T/C is the ratio of treated to control.

Molecules are shown by their SMILES.
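Further: spheroids exposed to compounds for seven days; 100% = DMSO vehicle control viability.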

One experiment concerns 889142-216-R-J1-PDC complex spheroid viability. The experiment can be described thus: Anticancer human tumor 889142-216-R-J1-PDC patient-derived bladder carcinoma cell line growth inhibition [POLQ]. Particulars: second compound 3.16 µM; first compound 0.0316 µM; active compounds read low. In outline: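 PDC + HUVEC + MSC complex spheroids; POLQ inhibitors ± partner drugs; top conc. at/near clinical Cmax, else 10 microM (SN-38 1 microM), half-log dilutions; 37 degrees C, 5% CO2.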
On to `CNCc1ccc(-c2[nH]c3cc(F)cc4c3c2CCNC4=O)cc1` + Cc1cccc(N(C)C(=O)C2C(O)CCN2c2nc(C)cc(C(F)(F)F)c2C#N)c1, for which the viability, T/C is 102%.

For `COc1cccc(OCCCN)c1-c1cc(Nc2cnc(C#N)cn2)n[nH]1` + Cc1cccc(N(C)C(=O)C2C(O)CCN2c2nc(C)cc(C(F)(F)F)c2C#N)c1, the viability, T/C was 63.8%.

Still in this experiment, the particulars now being: second compound 3.16 µM; first compound 0.1 µM; active compounds read low.
With `C=CCn1c(=O)c2cnc(Nc3ccc(N4CCN(C)CC4)cc3)nc2n1-c1cccc(C(C)(C)O)n1` + Cc1cccc(N(C)C(=O)C2C(O)CCN2c2nc(C)cc(C(F)(F)F)c2C#N)c1, the viability, T/C was 111%.

On to `CCCS(=O)(=O)Nc1ccc(F)c(C(=O)c2c[nH]c3ncc(-c4ccc(Cl)cc4)cc23)c1F` + Cc1cccc(N(C)C(=O)C2C(O)CCN2c2nc(C)cc(C(F)(F)F)c2C#N)c1, for which the viability, T/C is 96%.

In the case of `CNCc1ccc(-c2[nH]c3cc(F)cc4c3c2CCNC4=O)cc1` + Cc1cccc(N(C)C(=O)C2C(O)CCN2c2nc(C)cc(C(F)(F)F)c2C#N)c1, the viability, T/C was 99%.

With `COc1cccc(OCCCN)c1-c1cc(Nc2cnc(C#N)cn2)n[nH]1` + Cc1cccc(N(C)C(=O)C2C(O)CCN2c2nc(C)cc(C(F)(F)F)c2C#N)c1, the viability, T/C was 46.2%.

Still in this experiment, the particulars now being: second compound 3.16 µM; first compound 0.316 µM; active compounds read low.
On to `C=CCn1c(=O)c2cnc(Nc3ccc(N4CCN(C)CC4)cc3)nc2n1-c1cccc(C(C)(C)O)n1` + Cc1cccc(N(C)C(=O)C2C(O)CCN2c2nc(C)cc(C(F)(F)F)c2C#N)c1, for which the viability, T/C is 80.8%.

With `CCCS(=O)(=O)Nc1ccc(F)c(C(=O)c2c[nH]c3ncc(-c4ccc(Cl)cc4)cc23)c1F` + Cc1cccc(N(C)C(=O)C2C(O)CCN2c2nc(C)cc(C(F)(F)F)c2C#N)c1, the viability, T/C was 81.1%.

On to `CNCc1ccc(-c2[nH]c3cc(F)cc4c3c2CCNC4=O)cc1` + Cc1cccc(N(C)C(=O)C2C(O)CCN2c2nc(C)cc(C(F)(F)F)c2C#N)c1, for which the viability, T/C is 110%.

For the compound `COc1cccc(OCCCN)c1-c1cc(Nc2cnc(C#N)cn2)n[nH]1` + Cc1cccc(N(C)C(=O)C2C(O)CCN2c2nc(C)cc(C(F)(F)F)c2C#N)c1, the viability, T/C is 49.8%.

The same experiment, now with this note: second compound 3.16 µM; first compound 1 µM; active compounds read low.
As for `C=CCn1c(=O)c2cnc(Nc3ccc(N4CCN(C)CC4)cc3)nc2n1-c1cccc(C(C)(C)O)n1` + Cc1cccc(N(C)C(=O)C2C(O)CCN2c2nc(C)cc(C(F)(F)F)c2C#N)c1, the viability, T/C is 59.8%.

In the case of `CCCS(=O)(=O)Nc1ccc(F)c(C(=O)c2c[nH]c3ncc(-c4ccc(Cl)cc4)cc23)c1F` + Cc1cccc(N(C)C(=O)C2C(O)CCN2c2nc(C)cc(C(F)(F)F)c2C#N)c1, the viability, T/C is 79.2%.

Consider `CNCc1ccc(-c2[nH]c3cc(F)cc4c3c2CCNC4=O)cc1` + Cc1cccc(N(C)C(=O)C2C(O)CCN2c2nc(C)cc(C(F)(F)F)c2C#N)c1, for which the viability, T/C is 89.2%.

On to `COc1cccc(OCCCN)c1-c1cc(Nc2cnc(C#N)cn2)n[nH]1` + Cc1cccc(N(C)C(=O)C2C(O)CCN2c2nc(C)cc(C(F)(F)F)c2C#N)c1, for which the viability, T/C is 51.8%.

The experiment is the same for the next values; noted with them: second compound 3.16 µM; first compound 3.16 µM; active compounds read low.
As for `CCCS(=O)(=O)Nc1ccc(F)c(C(=O)c2c[nH]c3ncc(-c4ccc(Cl)cc4)cc23)c1F` + Cc1cccc(N(C)C(=O)C2C(O)CCN2c2nc(C)cc(C(F)(F)F)c2C#N)c1, the viability, T/C was 75.2%.

`CNCc1ccc(-c2[nH]c3cc(F)cc4c3c2CCNC4=O)cc1` + Cc1cccc(N(C)C(=O)C2C(O)CCN2c2nc(C)cc(C(F)(F)F)c2C#N)c1: the viability, T/C is 96.6%.

Staying with this experiment, now noted: second compound 3.16 µM; first compound 10 µM; active compounds read low.
On to `CCCS(=O)(=O)Nc1ccc(F)c(C(=O)c2c[nH]c3ncc(-c4ccc(Cl)cc4)cc23)c1F` + Cc1cccc(N(C)C(=O)C2C(O)CCN2c2nc(C)cc(C(F)(F)F)c2C#N)c1, for which the viability, T/C is 44.9%.

With `CNCc1ccc(-c2[nH]c3cc(F)cc4c3c2CCNC4=O)cc1` + Cc1cccc(N(C)C(=O)C2C(O)CCN2c2nc(C)cc(C(F)(F)F)c2C#N)c1, the viability, T/C was 63.9%.

Staying with this experiment, now noted: second compound 10 µM; first compound 0.00316 µM; active compounds read low.
`C=CCn1c(=O)c2cnc(Nc3ccc(N4CCN(C)CC4)cc3)nc2n1-c1cccc(C(C)(C)O)n1` + Cc1cccc(N(C)C(=O)C2C(O)CCN2c2nc(C)cc(C(F)(F)F)c2C#N)c1: the viability, T/C was 108%.

On to `COc1cccc(OCCCN)c1-c1cc(Nc2cnc(C#N)cn2)n[nH]1` + Cc1cccc(N(C)C(=O)C2C(O)CCN2c2nc(C)cc(C(F)(F)F)c2C#N)c1, for which the viability, T/C is 74.8%.

Still in this experiment, the particulars now being: second compound 10 µM; first compound 0.01 µM; active compounds read low.
In the case of `C=CCn1c(=O)c2cnc(Nc3ccc(N4CCN(C)CC4)cc3)nc2n1-c1cccc(C(C)(C)O)n1` + Cc1cccc(N(C)C(=O)C2C(O)CCN2c2nc(C)cc(C(F)(F)F)c2C#N)c1, the viability, T/C is 127%.

With `COc1cccc(OCCCN)c1-c1cc(Nc2cnc(C#N)cn2)n[nH]1` + Cc1cccc(N(C)C(=O)C2C(O)CCN2c2nc(C)cc(C(F)(F)F)c2C#N)c1, the viability, T/C was 73.5%.

The experiment is the same for the next values; noted with them: second compound 10 µM; first compound 0.0316 µM; active compounds read low.
For `C=CCn1c(=O)c2cnc(Nc3ccc(N4CCN(C)CC4)cc3)nc2n1-c1cccc(C(C)(C)O)n1` + Cc1cccc(N(C)C(=O)C2C(O)CCN2c2nc(C)cc(C(F)(F)F)c2C#N)c1, the viability, T/C is 116%.

Turning to `CCCS(=O)(=O)Nc1ccc(F)c(C(=O)c2c[nH]c3ncc(-c4ccc(Cl)cc4)cc23)c1F` + Cc1cccc(N(C)C(=O)C2C(O)CCN2c2nc(C)cc(C(F)(F)F)c2C#N)c1, the viability, T/C is 65.1%.

Turning to `CNCc1ccc(-c2[nH]c3cc(F)cc4c3c2CCNC4=O)cc1` + Cc1cccc(N(C)C(=O)C2C(O)CCN2c2nc(C)cc(C(F)(F)F)c2C#N)c1, the viability, T/C is 73.7%.

Take `COc1cccc(OCCCN)c1-c1cc(Nc2cnc(C#N)cn2)n[nH]1` + Cc1cccc(N(C)C(=O)C2C(O)CCN2c2nc(C)cc(C(F)(F)F)c2C#N)c1: the viability, T/C was 46.6%.

Still in this experiment, the particulars now being: second compound 10 µM; first compound 0.1 µM; active compounds read low.
Turning to `C=CCn1c(=O)c2cnc(Nc3ccc(N4CCN(C)CC4)cc3)nc2n1-c1cccc(C(C)(C)O)n1` + Cc1cccc(N(C)C(=O)C2C(O)CCN2c2nc(C)cc(C(F)(F)F)c2C#N)c1, the viability, T/C is 77%.

On to `CCCS(=O)(=O)Nc1ccc(F)c(C(=O)c2c[nH]c3ncc(-c4ccc(Cl)cc4)cc23)c1F` + Cc1cccc(N(C)C(=O)C2C(O)CCN2c2nc(C)cc(C(F)(F)F)c2C#N)c1, for which the viability, T/C was 86.2%.

As to `CNCc1ccc(-c2[nH]c3cc(F)cc4c3c2CCNC4=O)cc1` + Cc1cccc(N(C)C(=O)C2C(O)CCN2c2nc(C)cc(C(F)(F)F)c2C#N)c1, the viability, T/C was 81.2%.

Consider `COc1cccc(OCCCN)c1-c1cc(Nc2cnc(C#N)cn2)n[nH]1` + Cc1cccc(N(C)C(=O)C2C(O)CCN2c2nc(C)cc(C(F)(F)F)c2C#N)c1, for which the viability, T/C was 48.8%.

Staying with this experiment, now noted: second compound 10 µM; first compound 0.316 µM; active compounds read low.
Consider `C=CCn1c(=O)c2cnc(Nc3ccc(N4CCN(C)CC4)cc3)nc2n1-c1cccc(C(C)(C)O)n1` + Cc1cccc(N(C)C(=O)C2C(O)CCN2c2nc(C)cc(C(F)(F)F)c2C#N)c1, for which the viability, T/C is 70.2%.

With `CCCS(=O)(=O)Nc1ccc(F)c(C(=O)c2c[nH]c3ncc(-c4ccc(Cl)cc4)cc23)c1F` + Cc1cccc(N(C)C(=O)C2C(O)CCN2c2nc(C)cc(C(F)(F)F)c2C#N)c1, the viability, T/C was 90.1%.

On to `CNCc1ccc(-c2[nH]c3cc(F)cc4c3c2CCNC4=O)cc1` + Cc1cccc(N(C)C(=O)C2C(O)CCN2c2nc(C)cc(C(F)(F)F)c2C#N)c1, for which the viability, T/C was 88.4%.

Consider `COc1cccc(OCCCN)c1-c1cc(Nc2cnc(C#N)cn2)n[nH]1` + Cc1cccc(N(C)C(=O)C2C(O)CCN2c2nc(C)cc(C(F)(F)F)c2C#N)c1, for which the viability, T/C was 42.7%.

Still in this experiment, the particulars now being: second compound 10 µM; first compound 1 µM; active compounds read low.
For `C=CCn1c(=O)c2cnc(Nc3ccc(N4CCN(C)CC4)cc3)nc2n1-c1cccc(C(C)(C)O)n1` + Cc1cccc(N(C)C(=O)C2C(O)CCN2c2nc(C)cc(C(F)(F)F)c2C#N)c1, the viability, T/C is 54.7%.

Regarding `CCCS(=O)(=O)Nc1ccc(F)c(C(=O)c2c[nH]c3ncc(-c4ccc(Cl)cc4)cc23)c1F` + Cc1cccc(N(C)C(=O)C2C(O)CCN2c2nc(C)cc(C(F)(F)F)c2C#N)c1, the viability, T/C is 66.3%.

In the case of `CNCc1ccc(-c2[nH]c3cc(F)cc4c3c2CCNC4=O)cc1` + Cc1cccc(N(C)C(=O)C2C(O)CCN2c2nc(C)cc(C(F)(F)F)c2C#N)c1, the viability, T/C is 94.4%.

`COc1cccc(OCCCN)c1-c1cc(Nc2cnc(C#N)cn2)n[nH]1` + Cc1cccc(N(C)C(=O)C2C(O)CCN2c2nc(C)cc(C(F)(F)F)c2C#N)c1: the viability, T/C was 43.9%.

The same experiment, now with this note: second compound 10 µM; first compound 3.16 µM; active compounds read low.
For the compound `CCCS(=O)(=O)Nc1ccc(F)c(C(=O)c2c[nH]c3ncc(-c4ccc(Cl)cc4)cc23)c1F` + Cc1cccc(N(C)C(=O)C2C(O)CCN2c2nc(C)cc(C(F)(F)F)c2C#N)c1, the viability, T/C was 67%.

With `CNCc1ccc(-c2[nH]c3cc(F)cc4c3c2CCNC4=O)cc1` + Cc1cccc(N(C)C(=O)C2C(O)CCN2c2nc(C)cc(C(F)(F)F)c2C#N)c1, the viability, T/C was 78.5%.

Staying with this experiment, now noted: second compound 10 µM; first compound 10 µM; active compounds read low.
Consider `CCCS(=O)(=O)Nc1ccc(F)c(C(=O)c2c[nH]c3ncc(-c4ccc(Cl)cc4)cc23)c1F` + Cc1cccc(N(C)C(=O)C2C(O)CCN2c2nc(C)cc(C(F)(F)F)c2C#N)c1, for which the viability, T/C was 38.5%.

As for `CNCc1ccc(-c2[nH]c3cc(F)cc4c3c2CCNC4=O)cc1` + Cc1cccc(N(C)C(=O)C2C(O)CCN2c2nc(C)cc(C(F)(F)F)c2C#N)c1, the viability, T/C is 57.2%.

Values taken from PubChem BioAssay AID1963831 (Molecular Pharmacology Branch, DTP, NCI, 2024).
